Experimental data: US11673876B2, “Substituted aminobenzyl heteroaryl compounds as EGFR and/or PI3K inhibitors” (Mekanistic Therapeutics LLC, priority 2020, dated 2023)

How the values were obtained:
Assay type in all cases: biochemical
PI3Ka = PI3Ka (Homo sapiens (Human), UniProt P42336); assay: Z'-LYTE / Adapta kinase assay, PI3Ka; settings: read-out: PI3Ka % Inh. @ 100 nM
Description: (§1) The Z′-LYTE® biochemical assay employs a fluorescence-based, coupled-enzyme format and is based on the differential sensitivity of phosphorylated and non-phosphorylated peptides to proteolytic cleavage (FIG. 6). The peptide substrate is labeled with two fluorophores one at each end—that make up a FRET pair. In the primary reaction, the kinase transfers the gamma-phosphate of ATP to a single tyrosine, serine or threonine residue in a synthetic FRET-peptide. In the secondary reaction, a site-specific protease recognizes and cleaves non-phosphorylated FRET-peptides. Phosphorylation of FRET-peptides suppresses cleavage by the Development Reagent. Cleavage disrupts FRET between the donor (i.e., coumarin) and acceptor (i.e., fluorescein) fluorophores on the FRET-peptide, whereas uncleaved, phosphorylated FRET-peptides maintain FRET. A ratiometric method, which calculates the ratio (the Emission Ratio) of donor emission to acceptor emission after excitation of the donor fluorophore at 400 nm, is used to quantitate reaction progress.
(§2) A significant benefit of this ratiometric method for quantitating reaction progress is the elimination of well-to-well variations in FRET-peptide concentration and signal intensities. As a result, the assay yields very high Z′-factor values (>0.7) at a low percent phosphorylation.
(§3) Both cleaved and uncleaved FRET-peptides contribute to the fluorescence signals and therefore to the Emission Ratio. The extent of phosphorylation of the FRET-peptide can be calculated from the Emission Ratio.
(§4) Enzyme: The ADAPTA universal kinase assay is a homogenous, fluorescent based immunoassay for the detection of ADP. In contrast to ATP depletion assays, the ADAPTA assay is extremely sensitive to ADP formation such that a majority of the signal change occurs in the first 10-20% conversion of ATP to ADP. This makes the ADAPTA universal kinase assay ideally suited for use with low activity kinases.
(§5) The principle of the ADAPTA universal kinase assay is outlined below. The assay itself can be divided into two phases: a kinase reaction phase, and an ADP detection phase. In the kinase reaction phase, all components required for the kinase reaction are added to the well, and the reaction is allowed to incubate for 60 minutes.
(§6) Z′-LYTE® Assay Conditions:
(§7) Test Compounds: The Test Compounds are screened in 1% DMSO (final) in the well. For 10 point titrations, 3-fold serial dilutions are conducted from the starting concentration.
(§8) Peptide/Kinase Mixtures: All Peptide/Kinase Mixtures are diluted to a 2× working concentration in the appropriate Kinase Buffer.
(§9) ATP Solution: All ATP Solutions are diluted to a 4× working concentration in Kinase Buffer (50 mM HEPES pH 7.5, 0.01% BRIJ-35, 10 mM MgCl2, 1 mM EGTA). ATP Km apparent is previously determined using a Z′-LYTE® assay.
(§10) Development Reagent Solution: The Development Reagent is diluted in Development Buffer. […]
(§11) 2.5 μL—4× Test Compound or 100 nL 100× plus 2.4 μL kinase buffer. 2. 5 μL—2× Peptide/Kinase Mixture. 3. 2.5 μL—4× ATP Solution. 4. 30-second plate shake. 5. 60-minute Kinase Reaction incubation at room temperature. 6. 5 μL—Development Reagent Solution. 7. 30-second plate shake. 8. 60-minute Development Reaction incubation at room temperature. 9.

EGFR = EGFR (Homo sapiens (Human), UniProt P00533); assay: Z'-LYTE / Adapta kinase assay, EGFR; settings: read-out: EGFR % Inh. @ 100 nM
Chain of EGFR (P00533 25-1210): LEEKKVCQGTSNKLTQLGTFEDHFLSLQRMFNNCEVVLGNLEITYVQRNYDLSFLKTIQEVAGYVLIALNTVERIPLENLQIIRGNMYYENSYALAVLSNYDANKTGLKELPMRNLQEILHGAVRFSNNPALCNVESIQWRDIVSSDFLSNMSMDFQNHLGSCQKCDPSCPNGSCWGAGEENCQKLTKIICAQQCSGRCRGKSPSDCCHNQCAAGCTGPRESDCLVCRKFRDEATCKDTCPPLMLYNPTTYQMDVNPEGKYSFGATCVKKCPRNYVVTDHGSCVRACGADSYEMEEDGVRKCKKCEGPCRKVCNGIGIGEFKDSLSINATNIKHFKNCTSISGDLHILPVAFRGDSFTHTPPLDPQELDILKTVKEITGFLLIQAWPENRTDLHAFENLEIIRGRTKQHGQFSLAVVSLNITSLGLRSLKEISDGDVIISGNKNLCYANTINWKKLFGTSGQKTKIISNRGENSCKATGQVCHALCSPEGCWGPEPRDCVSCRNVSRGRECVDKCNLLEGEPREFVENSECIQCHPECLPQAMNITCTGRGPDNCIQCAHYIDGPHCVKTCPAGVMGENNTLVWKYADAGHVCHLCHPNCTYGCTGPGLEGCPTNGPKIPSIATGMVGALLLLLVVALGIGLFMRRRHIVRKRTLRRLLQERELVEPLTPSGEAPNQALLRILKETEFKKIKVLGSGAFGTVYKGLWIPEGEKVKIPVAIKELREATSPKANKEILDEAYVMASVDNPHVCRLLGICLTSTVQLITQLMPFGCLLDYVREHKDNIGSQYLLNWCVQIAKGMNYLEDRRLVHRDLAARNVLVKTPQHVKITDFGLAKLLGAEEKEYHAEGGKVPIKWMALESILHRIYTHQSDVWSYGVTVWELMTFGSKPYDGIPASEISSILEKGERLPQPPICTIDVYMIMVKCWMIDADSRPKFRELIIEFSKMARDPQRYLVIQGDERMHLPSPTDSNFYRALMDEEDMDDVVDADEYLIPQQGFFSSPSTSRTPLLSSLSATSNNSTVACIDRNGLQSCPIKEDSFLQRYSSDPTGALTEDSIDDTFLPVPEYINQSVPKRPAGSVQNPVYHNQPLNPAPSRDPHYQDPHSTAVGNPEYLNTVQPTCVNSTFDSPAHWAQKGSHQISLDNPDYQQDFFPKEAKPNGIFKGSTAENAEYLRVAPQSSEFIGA
Description: as §1, §2, §3, §4, §5, §6, §7, §8, §9, §10, §11

DNA-PK = DNA-PK (Homo sapiens (Human), UniProt P78527); assay: Z'-LYTE / Adapta kinase assay, DNA-PK; settings: read-out: DNA-PK % Inh. @ 100 nM
Description: as §1, §2, §3, §4, §5, §6, §7, §8, §9, §10, §11

Chain of PI3Ka (P42336 whole entry): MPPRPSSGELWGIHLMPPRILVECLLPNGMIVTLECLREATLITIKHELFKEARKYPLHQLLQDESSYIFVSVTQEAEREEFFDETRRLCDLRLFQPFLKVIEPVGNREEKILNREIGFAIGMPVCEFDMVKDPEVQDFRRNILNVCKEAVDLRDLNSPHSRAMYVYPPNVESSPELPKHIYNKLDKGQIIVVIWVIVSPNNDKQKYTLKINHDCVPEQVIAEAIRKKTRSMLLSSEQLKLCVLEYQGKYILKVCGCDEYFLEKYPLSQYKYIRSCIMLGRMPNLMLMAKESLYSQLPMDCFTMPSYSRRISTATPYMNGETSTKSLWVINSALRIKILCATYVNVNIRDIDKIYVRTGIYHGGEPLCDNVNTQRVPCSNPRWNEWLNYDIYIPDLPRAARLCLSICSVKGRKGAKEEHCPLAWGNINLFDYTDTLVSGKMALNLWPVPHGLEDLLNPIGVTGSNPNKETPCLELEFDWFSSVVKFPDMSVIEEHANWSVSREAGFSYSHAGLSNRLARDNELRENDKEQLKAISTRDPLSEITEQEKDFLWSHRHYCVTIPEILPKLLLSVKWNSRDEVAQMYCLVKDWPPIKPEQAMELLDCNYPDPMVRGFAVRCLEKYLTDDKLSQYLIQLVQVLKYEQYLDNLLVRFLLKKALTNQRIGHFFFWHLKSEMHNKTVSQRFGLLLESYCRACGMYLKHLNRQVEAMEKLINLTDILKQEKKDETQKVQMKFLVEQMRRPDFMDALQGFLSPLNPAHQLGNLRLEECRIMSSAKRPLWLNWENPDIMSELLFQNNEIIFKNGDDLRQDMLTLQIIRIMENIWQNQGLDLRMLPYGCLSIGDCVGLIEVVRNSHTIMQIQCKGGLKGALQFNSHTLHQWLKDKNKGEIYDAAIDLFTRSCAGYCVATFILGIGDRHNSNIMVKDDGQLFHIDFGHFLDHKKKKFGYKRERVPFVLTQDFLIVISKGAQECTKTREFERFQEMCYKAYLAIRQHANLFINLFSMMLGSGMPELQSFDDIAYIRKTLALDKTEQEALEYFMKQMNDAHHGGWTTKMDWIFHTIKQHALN
Chain of PI3Ka (P27986 whole entry partner): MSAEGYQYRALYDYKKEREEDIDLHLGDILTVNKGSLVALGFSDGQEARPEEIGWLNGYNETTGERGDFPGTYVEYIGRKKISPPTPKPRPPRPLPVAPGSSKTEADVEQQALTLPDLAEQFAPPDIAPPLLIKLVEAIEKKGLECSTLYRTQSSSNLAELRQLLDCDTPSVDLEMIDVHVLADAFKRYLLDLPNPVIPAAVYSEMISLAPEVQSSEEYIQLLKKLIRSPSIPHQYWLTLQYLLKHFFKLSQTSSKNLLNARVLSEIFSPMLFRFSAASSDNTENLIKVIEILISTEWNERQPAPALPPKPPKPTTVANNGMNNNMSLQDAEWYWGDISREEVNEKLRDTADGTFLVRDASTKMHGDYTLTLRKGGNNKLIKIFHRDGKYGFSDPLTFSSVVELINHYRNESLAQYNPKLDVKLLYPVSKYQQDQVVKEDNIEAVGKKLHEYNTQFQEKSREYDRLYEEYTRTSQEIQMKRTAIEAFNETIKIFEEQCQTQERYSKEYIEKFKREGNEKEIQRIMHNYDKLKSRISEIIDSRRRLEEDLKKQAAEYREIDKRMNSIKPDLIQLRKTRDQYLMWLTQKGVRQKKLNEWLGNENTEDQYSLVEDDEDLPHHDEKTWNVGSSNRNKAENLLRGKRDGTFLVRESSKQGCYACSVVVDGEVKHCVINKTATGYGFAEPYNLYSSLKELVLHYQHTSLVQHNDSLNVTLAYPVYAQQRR

Structure (SMILES) | inhibition at 0.1 µM (PI3Ka) | inhibition at 0.1 µM (EGFR) | inhibition at 0.1 µM (DNA-PK)
CC(Nc1ncnc2ccc(-c3cnc4[nH]ncc4c3)cc12)c1ccccc1 (centres unmarked) [Compound 8, N-(1-phenylethyl)-6-(1H-pyrazolo[3,4-b]pyridin-5-yl)quinazolin-4-amine] | 10 to 80% | 80 to 90% | 10 to 80%
Cc1nc2cc(-c3ccc4ncnc(NC(C)c5ccccc5)c4c3)cnc2[nH]1 (centres unmarked) [Compound 10, 6-(2-methyl-1H-imidazo[4,5-b]pyridin-6-yl)-N-(1-phenylethyl)quinazolin-4-amine] | 10 to 80% | 80 to 90% | 10 to 80%
CC(Nc1ncnc2ccc(-c3cncc(C(C)(C)O)c3)cc12)c1ccccc1 (centres unmarked) [Compound 21, 2-[5-[4-(1-phenylethylamino)quinazolin-6-yl]-3-pyridyl]propan-2-ol] | 10 to 80% | 80 to 90% | 10 to 80%
CC(Nc1ncnc2ccc(-c3cnc4[nH]nnc4c3)cc12)c1ccccc1 (centres unmarked) [Compound 24, N-(1-phenylethyl)-6-(3H-triazolo[4,5-b]pyridin-6-yl)quinazolin-4-amine] | 10 to 80% | > 90% | 10 to 80%
CC(Nc1ncnc2ccc(-c3cnc4cnn(C)c4c3)cc12)c1ccccc1 (centres unmarked) [Compound 27, 6-(1-methylpyrazolo[4,3-b]pyridin-6-yl)-N-(1-phenylethyl)quinazolin-4-amine] | < 10% | 10 to 80% | 10 to 80%
CC(Nc1ncnc2ccc(-c3cnc(N)c(S(C)(=O)=O)c3)cc12)c1ccccc1 (centres unmarked) [Compound 31, 6-(6-amino-5-(methylsulfonyl)pyridin-3-yl)-N-(1-phenylethyl)quinazolin-4-amine] | 80 to 90% | > 90% | > 90%
CC(Nc1ncnc2ccc(-c3cnc4cncn4c3)cc12)c1ccccc1 (centres unmarked) [Compound 34, 6-(imidazo[1,5-a]pyrimidin-3-yl)-N-(1-phenylethyl)quinazolin-4-amine] | > 90% | > 90% | 80 to 90%
CC(Nc1ncnc2ccc(-c3cnc(N)c(C(=O)N(C)C)c3)cc12)c1ccccc1 (centres unmarked) [Compound 36, 2-amino-N, N-dimethyl-5-[4-(1-phenylethylamino)quinazolin-6-yl] pyridine-3-carboxamide] | 10 to 80% | 10 to 80% | 10 to 80%
CC(Nc1ncnc2ccc(-c3ccc4oc(N)nc4c3)cc12)c1ccccc1 (centres unmarked) [Compound 41, 5-[4-(1-phenylethylamino)quinazolin-6-yl]-1,3-benzoxazol-2-amine] | 10 to 80% | > 90% | < 10%
C[C@@H](Nc1c(C#N)cnc2ccc(-c3cnc4[nH]ncc4c3)cc12)c1ccccc1 [Compound 54R, 4-[[(1R)-1-phenylethyl]amino]-6-(1H-pyrazolo [3,4-b]pyridin-5-yl) quinoline-3-carbonitrile] | 10 to 80% | 80 to 90% | 10 to 80%
CC(Nc1c(C#N)cnc2ccc(-c3cnc4[nH]ccc4c3)cc12)c1ccccc1 (centres unmarked) [Compound 55, 4-(1-phenylethylamino)-6-(1H-pyrrolo [2,3-b]pyridin-5-yl) quinoline-3-carbonitrile] | < 10% | 10 to 80% | 10 to 80%
Cc1nc2cc(-c3ccc4ncc(C#N)c(NC(C)c5ccccc5)c4c3)cnc2[nH]1 (centres unmarked) [Compound 56, 6-(2-methyl-3H-imidazo[4,5-b]pyridin-6-yl)-4-(1-phenylethylamino) quinoline-3-carbonitrile] | 10 to 80% | 10 to 80% | 10 to 80%
CC(Nc1c(C#N)cnc2ccc(-c3cncc(O)c3)cc12)c1ccccc1 (centres unmarked) [Compound 61, 6-(5-hydroxy-3-pyridyl)-4-(1-phenylethylamino) quinoline-3-carbonitrile] | < 10% | 80 to 90% | 10 to 80%
CC(Nc1c(C#N)cnc2ccc(-c3cnc(N)c(C(F)(F)F)c3)cc12)c1ccccc1 (centres unmarked) [Compound 62, 6-(6-amino-5-(trifluoromethyl)pyridin-3-yl)-4-((1-phenylethyl)amino)quinoline-3-carbonitrile] | < 10% | 10 to 80% | 10 to 80%
CC(Nc1c(C#N)cnc2ccc(-c3cncc(C#N)c3)cc12)c1ccccc1 (centres unmarked) [Compound 64, 6-(5-cyano-3-pyridyl)-4-(1-phenylethylamino) quinoline-3-carbonitrile] | 10 to 80% | 10 to 80% | 10 to 80%
CC(Nc1c(C#N)cnc2ccc(-c3cnc(N)c(C#N)c3)cc12)c1ccccc1 (centres unmarked) [Compound 65, 6-(6-amino-5-cyano-3-pyridyl)-4-(1-phenylethylamino) quinoline-3-carbonitrile] | 10 to 80% | 80 to 90% | 10 to 80%
CC(Nc1c(C#N)cnc2ccc(-c3cncc(C(C)(C)O)c3)cc12)c1ccccc1 (centres unmarked) [Compound 67, 6-[5-(1-hydroxy-1-methyl-ethyl)-3-pyridyl]-4-(1-phenylethylamino) quinoline-3-carbonitrile] | 10 to 80% | 10 to 80% | 10 to 80%
COc1cc(-c2ccc3ncc(C#N)c(NC(C)c4ccccc4)c3c2)cnc1OC (centres unmarked) [Compound 68, 6-(5,6-dimethoxy-3-pyridyl)-4-(1-phenylethylamino)quinoline-3-carbonitrile] | 10 to 80% | 80 to 90% | 10 to 80%
CC(Nc1c(C#N)cnc2ccc(-c3cnc4[nH]nnc4c3)cc12)c1ccccc1 (centres unmarked) [Compound 70, 4-(1-phenylethylamino)-6-(3H-triazolo [4,5-b]pyridin-6-yl) quinoline-3-carbonitrile] | 10 to 80% | 80 to 90% | 10 to 80%
CC(Nc1c(C#N)cnc2ccc(-c3cnc4cnn(C)c4c3)cc12)c1ccccc1 (centres unmarked) [Compound 73, 6-(1-methylpyrazolo [4,3-b]pyridin-6-yl)-4-(1-phenylethylamino) quinoline-3-carbonitrile] | 10 to 80% | 10 to 80% | < 10%
CC(Nc1c(C#N)cnc2ccc(-c3ccc4oc(N)nc4c3)cc12)c1ccccc1 (centres unmarked) [Compound 87, 6-(2-amino-1,3-benzoxazol-5-yl)-4-(1-phenylethylamino) quinoline-3-carbonitrile] | 10 to 80% | 80 to 90% | < 10%
CS(=O)(=O)Nc1cc(-c2ccc3ncc(C#N)c(NC4c5ccccc5CC4O)c3c2)cnc1Cl (centres unmarked) [Compound 103, N-[2-chloro-5-[3-cyano-4-[(2-hydroxyindan-1-yl)amino]-6-quinolyl]-3-pyridyl]methanesulfonamide] |  | < 10% | > 90%
CC(Nc1c(C#N)cnc2ccc(-c3cnc4ccccc4c3)cc12)c1ccccc1 (centres unmarked) [Compound 122, 4-(1-phenylethylamino)-6-(3-quinolyl)quinoline-3-carbonitrile] | < 10% | 10 to 80% | < 10%
CC(Nc1c(C#N)cnc2ccc(-c3cccnc3)cc12)c1ccccc1 (centres unmarked) [Compound 123, 4-(1-phenylethylamino)-6-(3-pyridyl) quinoline-3-carbonitrile] | < 10% | > 90% | 10 to 80%
CC(Nc1c(C#N)cnc2ccc(-c3n[nH]c4ccncc34)cc12)c1ccccc1 (centres unmarked) [Compound 124, 4-(1-phenylethylamino)-6-(1H-pyrazolo [4,3-c]pyridin-3-yl) quinoline-3-carbonitrile] | < 10% | > 90% | < 10%
